Measurements reported in ChEMBL document CHEMBL3045999, “Synthesis, characterization and antimicrobial activity of 4-amino-1-alkyl pyridinium salts” (Med Chem Res, 2012).
Calls of active or inactive are those of the source. The rule behind the calls is not given here.

Legend:
Escherichia coli [1] = assay: Antibacterial activity against Escherichia coli NCIM 2065 at 500 ug/disk after 24 hr by disk diffusion method; assay type: functional; conditions: NCIM 2065, 24 h, read-out: IZ
Staphylococcus aureus [2] = assay: Antibacterial activity against Staphylococcus aureus NCIM 5021 at 500 ug/disc after 24 hr by disk diffusion method; assay type: functional; conditions: NCIM 5021, 24 h, read-out: IZ
Candida albicans [3] = assay: Antifungal activity against Candida albicans NCIM 3074 at 500 ug/disk after 24 hr by disk diffusion method; assay type: functional; conditions: NCIM 3074, 24 h, read-out: IZ
Nakaseomyces glabratus [4] = assay: Antifungal activity against Candida glabrata NCIM 3236 at 500 ug/disk after 24 hr by disk diffusion method; assay type: functional; conditions: NCIM 3236, 24 h, read-out: IZ
Nakaseomyces glabratus [5] = assay: Fungistatic activity against Candida glabrata NCIM 3236 at 500 ug/disk after 24 hr by disk diffusion method; assay type: functional, organism-based
Escherichia coli [6] = assay: Bacteriostatic activity against Escherichia coli NCIM 2065 at 500 ug/disk after 24 hr by disk diffusion method; assay type: functional, organism-based
Staphylococcus aureus [7] = assay: Bacteriostatic activity against Staphylococcus aureus NCIM 5021 at 500 ug/disc after 24 hr by disk diffusion method; assay type: functional, organism-based
Candida albicans [8] = assay: Fungistatic activity against Candida albicans NCIM 3074 at 500 ug/disk after 24 hr by disk diffusion method; assay type: functional, organism-based
Candida albicans [9] = assay: Fungistatic activity against Candida albicans NCIM 3074 at 25 ug/disk after 24 hr by disk diffusion method; assay type: functional, organism-based
Nakaseomyces glabratus [10] = assay: Fungistatic activity against Candida glabrata NCIM 3236 at 25 ug/disk after 24 hr by disk diffusion method; assay type: functional, organism-based
Staphylococcus aureus [11] = assay: Antibacterial activity against Staphylococcus aureus NCIM 5021 after 24 hr by NCCLS broth microdilution method; assay type: functional; conditions: NCIM 5021, 24 h
Candida albicans [12] = assay: Fungicidal activity against Candida albicans NCIM 3074 after 24 hr by NCCLS broth microdilution method; assay type: functional; conditions: NCIM 3074, 24 h
Candida albicans [13] = assay: Antifungal activity against Candida albicans NCIM 3074 assessed as inhibition of germ tube formation after 3 to 4 hr; assay type: functional
Candida albicans [14] = assay: Antifungal activity against Candida albicans NCIM 3074 after 24 hr by NCCLS broth microdilution method; assay type: functional; conditions: NCIM 3074, 24 h
Staphylococcus aureus [15] = assay: Bactericidal activity against Staphylococcus aureus NCIM 5021 after 24 hr by NCCLS broth microdilution method; assay type: functional; conditions: NCIM 5021, 24 h
Staphylococcus aureus [16] = assay: Bacteriostatic activity against Staphylococcus aureus NCIM 5021 at 20 ug/disc after 24 hr by disk diffusion method; assay type: functional, organism-based
Escherichia coli [17] = assay: Bacteriostatic activity against Escherichia coli NCIM 2065 at 20 ug/disk after 24 hr by disk diffusion method; assay type: functional, organism-based
Candida albicans [18] = assay: Inhibition of Candida albicans phospholipase at 124.96 uM after 30 min
[19] = Cytotoxicity against Homo sapiens (human) erythrocytes assessed as hemolytic activity at 124.96 uM after 1 hr; assay type: cell-based, Erythrocyte; conditions: read-out: Activity
[20] = Cytotoxicity against Homo sapiens (human) erythrocytes assessed as hemolytic activity at 15.62 uM after 1 hr; assay type: cell-based, Erythrocyte; conditions: read-out: Activity

## CCCCCCCCn1ccc(=N)cc1
Escherichia coli [1]
  zone of inhibition at 500 µg/disc: 27 mm
Staphylococcus aureus [2]
  zone of inhibition at 500 µg/disc: 25 mm
Candida albicans [3]
  zone of inhibition at 500 µg/disc: 14 mm
Nakaseomyces glabratus [4]
  zone of inhibition at 500 µg/disc: 22 mm

## CCC[n+]1ccc(N)cc1
Nakaseomyces glabratus [5]
  Activity: inactive
Escherichia coli [6]
  Activity: Active
Staphylococcus aureus [7]
  Activity: Active
Candida albicans [8]
  Activity: inactive

## CCn1ccc(=N)cc1
Nakaseomyces glabratus [5]
  Activity: inactive
Escherichia coli [6]
  Activity: inactive
Staphylococcus aureus [7]
  Activity: inactive
Candida albicans [8]
  Activity: inactive

## CCCCCCn1ccc(=N)cc1
Escherichia coli [1]
  zone of inhibition at 500 µg/disc: 18 mm
Staphylococcus aureus [2]
  zone of inhibition at 500 µg/disc: 21 mm
Candida albicans [8]
  Activity: Active
Nakaseomyces glabratus [4]
  zone of inhibition at 500 µg/disc: 10 mm

## CCCC[n+]1ccc(N)cc1
Nakaseomyces glabratus [5]
  Activity: inactive
Escherichia coli [6]
  Activity: Active
Staphylococcus aureus [7]
  Activity: Active
Candida albicans [8]
  Activity: inactive

## CN[C@@H]1[C@H](O[C@H]2[C@H](O[C@H]3[C@H](O)[C@@H](O)[C@H](N=C(N)N)[C@@H](O)[C@@H]3N=C(N)N)O[C@@H](C)[C@]2(O)C=O)O[C@@H](CO)[C@H](O)[C@H]1O [STREPTOMYCIN]
Candida albicans [9]
  Activity: inactive
Escherichia coli [1]
  zone of inhibition at 500 µg/disc: 32 mm
Nakaseomyces glabratus [10]
  Activity: inactive
Staphylococcus aureus [2]
  zone of inhibition at 500 µg/disc: 30 mm

## CCCCC[n+]1ccc(N)cc1
Nakaseomyces glabratus [5]
  Activity: Active
Escherichia coli [1]
  zone of inhibition at 500 µg/disc: 16 mm
Staphylococcus aureus [2]
  zone of inhibition at 500 µg/disc: 14 mm
Candida albicans [8]
  Activity: inactive

## CCCCCCC[n+]1ccc(N)cc1
Escherichia coli [1]
  zone of inhibition at 500 µg/disc: 26 mm
Staphylococcus aureus [2]
  zone of inhibition at 500 µg/disc: 25 mm
Candida albicans [3]
  zone of inhibition at 500 µg/disc: 10.5 mm
Nakaseomyces glabratus [4]
  zone of inhibition at 500 µg/disc: 16 mm

## CCCCCCCCCCCCCCCC[n+]1ccc(N)cc1.[Br-]
Staphylococcus aureus [11]
  MIC: < 15.6 µM
Escherichia coli [1]
  zone of inhibition at 500 µg/disc: 34 mm
Staphylococcus aureus [2]
  zone of inhibition at 500 µg/disc: 36 mm
Candida albicans [3]
  zone of inhibition at 500 µg/disc: 26.5 mm
Candida albicans [12]
  MFC: 31.2 µM
Candida albicans [13]
  INH: 15.62 µM
Candida albicans [14]
  MIC: 15.6 µM
Staphylococcus aureus [15]
  MBC: 15.6 µM
Nakaseomyces glabratus [4]
  zone of inhibition at 500 µg/disc: 30 mm

## CCCCCCCCCCCCCC[n+]1ccc(N)cc1
Escherichia coli [1]
  zone of inhibition at 500 µg/disc: 6.5 mm
Staphylococcus aureus [2]
  zone of inhibition at 500 µg/disc: 6 mm
Candida albicans [3]
  zone of inhibition at 500 µg/disc: 9 mm
Nakaseomyces glabratus [4]
  zone of inhibition at 500 µg/disc: 8.5 mm

## C[C@@H]1[C@H](O)[C@@H](C)/C=C/C=C/C=C/C=C/C=C/C=C/C=C/[C@H](O[C@@H]2O[C@H](C)[C@@H](O)[C@H](N)[C@@H]2O)C[C@@H]2O[C@](O)(C[C@@H](O)C[C@@H](O)[C@H](O)CC[C@@H](O)C[C@@H](O)CC(=O)O[C@H]1C)C[C@H](O)[C@H]2C(=O)O [AMPHOTERICIN B]
Staphylococcus aureus [16]
  Activity: inactive
Candida albicans [3]
  zone of inhibition at 500 µg/disc: 10 mm
Escherichia coli [17]
  Activity: inactive
Nakaseomyces glabratus [4]
  zone of inhibition at 500 µg/disc: 14 mm

## CCCCCCCCCCn1ccc(=N)cc1
Candida albicans [18]
  inhibition: Active
Escherichia coli [1]
  zone of inhibition at 500 µg/disc: 29 mm
Staphylococcus aureus [2]
  zone of inhibition at 500 µg/disc: 28 mm
Candida albicans [3]
  zone of inhibition at 500 µg/disc: 23.5 mm
[19]
  hemolysis at 1 h, 124.96 µM: 97.4%
[20]
  hemolysis at 1 h, 15.62 µM: 0.57%
Nakaseomyces glabratus [4]
  zone of inhibition at 500 µg/disc: 26 mm
